Results taken from ChEMBL document CHEMBL1151379, “Chemical Constituents of Hyptis suaveolens. Part I. Spectral and Biological Studies on a Triterpene Acid” (1981).

System: Bipolaris oryzae
Assay: Antifungal activity against Helminthosporium oryzae at 1000 ppm
Assay type: functional

C[C@H]1[C@H](C)CC[C@]2(C)CC[C@]3(C(=O)O)C(=CC[C@@H]4[C@@]5(C)CC[C@H](O)C(C)(C)[C@@H]5CC[C@]43C)[C@H]12
Activity: <10%
